The text below walks through data of patent publication US4350700A, “Pharmaceutical composition containing 1,3,5-substituted biuret compound” (Taiho Pharmaceutical Company, Limited, priority 1979, dated 1982).

Data set [1] can be described thus: Acute toxicity (oral, general symptom and death observed for 7 days). The format is in vivo, mice (ddy strain, male). The conditions noted are these: mouse, in vivo; oral, mice, 7 days observation (Δ values); read-out: Acute toxicity, 50% lethal dose LD50. The procedure, abridged:
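Male ddy mice (20-25 g), fasted overnight, dosed orally with compound suspended in 0.25% carboxymethylcellulose; symptoms and deaths observed for 7 days. Lethal dose (mg/kg) derived from deaths/number tested; marked values are LD50.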

Data set [2] has as its system 10% dry-yeast suspension-induced fever of rats. The data set can be described thus: Anti-pyretic activity (dry-yeast induced fever, febril index). The format is in vivo, rats (Wistar strain, male). The conditions noted are these: oral, febril index up to 4 hours after administration, dose not stated. Here is the method:
Next, several tests for determining the pharmacological properties, in that acute toxicity, anti-pyretic activity, analgesic activity and anti-inflammatory activity of the present 1,3,5-substituted biuret compounds of the formula (1) were conducted and the test results are shown in Table (2). In the tests, each compounds to be tested was used as a suspension in 0.25% carboxymethylcellulose solution. Methods for testing are explained as follows:
According to the method reported by Tanabe [Folia Pharmacologia Japonica, Vol. 73, pp. 803 (1977)], the Wistar strain of male rats (150-180 g body weight) were used as test animals. The rats were fasted overnight, and 1 ml/100 g (body weight) of 10% dry-yeast suspension were subcutaneously injected on the back of the rats. Five hours afte the injection, the test compound was administered orally, then the body temperature of the rat was measured time sequences. Anti-pyretic activity of the test compound was determined as the FI (febril index) by integrating pyrogenetic curve up to 4 hours after the administration of the test compound with time, and indicated as inhibitory ratio (%) shown by the following formula, [formula]

In data set [3] the test system is carrageenin-induced inflammation of the hindpaw of the rat. The data set can be described thus: Anti-inflammatory activity, acute carrageenin-induced inflammatory test. It counts as in vivo, rats (Wistar strain, male). The conditions noted are these: Rattus norvegicus, read-out: Anti-inflammatory activity, inflammation inhibitory ratio. In outline: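 Fasted male Wistar rats (150-180 g) dosed orally with 100 mg/kg compound suspended in 0.25% carboxymethylcellulose; 1 h later 0.1 ml of 1% carrageenin injected subcutaneously into hindpaw. Paw volume tracked over time; activity expressed as inflammation inhibitory ratio (%) at 3 hours post-injection.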

The test system of data set [4] is acetic acid-induced stretching symptom of mouse. The data set can be described thus: Analgesic activity, acetic acid-induced stretching method. It counts as in vivo, mice (ddy strain, male). The conditions noted are these: for inhibition in vivo at 100 mg/kg: read-out: Analgesic activity, acetic acid-induced stretching method, inhibitory ratio; for ED50: oral, mice (Δ values; range in parentheses), read-out: Analgesic activity, acetic acid-induced stretching method, 50% effective dose ED50. In outline: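 Overnight-fasted male ddy mice (20-25 g) dosed orally at 100 mg/kg (0.25% CMC suspension); 0.7% acetic acid given i.p. 1 h later and stretching observed. Values are % inhibition; some entries from other doses, or ED50 (mg/kg).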

The subject of data set [5] is pain reaction of the mouse caused by a clamp. The data set can be described thus: Analgesic activity, Haffner method. The format is in vivo, mice (ddy strain, male). The conditions noted are these: for Analgesic activity, Haffner method, inhibitory ratio: 100 mg/kg oral, mice; for ED50: Mus musculus, oral, mice (Δ values; range in parentheses), read-out: Analgesic activity, Haffner method, 50% effective dose ED50. The procedure, abridged: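 Male ddy mice weighing 20-25 g were fasted overnight, then given the test compound orally as a suspension in 0.25% carboxymethylcellulose solution. Forty-five minutes later, a threshold subcutaneous dose of morphine hydrochloride (1.5-2.5 mg/kg body weight) was injected. Pain reactions to a clamp were then observed over 1 hour. Analgesia was expressed as an inhibitory ratio (%) and as a 50% effective dose, ED50 (mg/kg body weight).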

The mark [6] stands for this setting: 100 mg/kg oral, rats, 3 hours after carrageenin.

Where two headings read alike, the source gives them in different places.

On to `CCNC(=O)N(C)C(=O)Nc1cccs1` [compound 40], for which the LD50 (usually the dose at which mortality reaches 50%) at 168 h in data set [1] amounted to 559 mg/kg. Also, the “Anti-pyretic activity, inhibitory ratio” value in data set [2] worked out at 42%. The inhibition in vivo at 100 mg/kg in data set [3] (po, 3 h) is 24%; in data set [4] (po), 75%. The “Analgesic activity, Haffner method, inhibitory ratio” value in data set [5] is given as 37.5%.

Regarding `CNC(=O)N(C)C(=O)Nc1ccc2c(c1)OCO2` [compound 9, 1,3-Dimethyl-5-(3,4-methylenedioxyphenyl)biuret], the LD50 at 168 h in data set [1] is 1080 mg/kg. The “Anti-pyretic activity, inhibitory ratio” value in data set [2] is reported as 38%. Further, the inhibition in vivo at 100 mg/kg worked out at 46% in data set [3] (setting [6]) and 87.5% in data set [4] (po). Further, the “Analgesic activity, Haffner method, inhibitory ratio” value in data set [5] came out at 25%.

Take `CNC(=O)N(C)C(=O)Nc1cccnc1` [Compound No. 15, 1,3-Dimethyl-5-(3-pyridyl)-biuret]: the LD50 at 168 h in data set [1] was 1100 mg/kg. In data set [2], the “Anti-pyretic activity, inhibitory ratio” value is recorded as 94%. Also, the inhibition in vivo at 100 mg/kg in data set [3] (setting [6]) turned out to be 37%. Further, the ED50 (usually the midpoint of the dose-response relation) in data set [4] was found to be 44 mg/kg. Moreover, in data set [5], the “Analgesic activity, Haffner method, inhibitory ratio” value was 62.5%.

For the molecule `CCNC(=O)N(C)C(=O)Nc1ccccc1` [Compound No. 31, 1-ethyl-3-methyl-5-phenylbiuret], the 50% lethal dose (LD50) at 168 h in data set [1] was determined as 1590 mg/kg. The “Anti-pyretic activity, inhibitory ratio” value in data set [2] stood at 149%. Also, in data set [3] (setting [6]), the inhibition in vivo at 100 mg/kg turned out to be 63%. In addition, the ED50 in data set [4] was 70 mg/kg; in data set [5], 105 mg/kg.

`CNC(=O)N(C)C(=O)Nc1ccccc1` [Compound No. 3, 1,3-dimethyl-5-phenylbiuret]: in data set [1], the LD50 at 168 h was determined as 1450 mg/kg. Moreover, the “Anti-pyretic activity, inhibitory ratio” value in data set [2] worked out at 145%. Also, in data set [3] (setting [6]), the inhibition in vivo at 100 mg/kg came out at 88%. For the same molecule, the ED50 stood at 35 mg/kg in data set [4] and 111 mg/kg in data set [5].

Turning to `CNC(=O)N(C)C(=O)Nc1ccc(OC)cc1` [Compound No. 8, 1,3-Dimethyl-5-(4-methoxyphenyl)-biuret], in data set [1], the LD50 at 168 h stood at 1440 mg/kg. The “Anti-pyretic activity, inhibitory ratio” value in data set [2] turned out to be 110%. Further, the inhibition in vivo at 100 mg/kg amounted to 40% in data set [3] (setting [6]) and 87.5% in data set [4] (100 mg/kg oral, mice). The “Analgesic activity, Haffner method, inhibitory ratio” value in data set [5] is 50%.
